We go through eleven molecules from ChEMBL document CHEMBL1201862, “PubChem BioAssay data set” (2004).

Among the test systems are U-251; PC-3; HCT-15; MDA-N; HCC 2998; SF-539; Hs-578T; A498; UO-31; SW-620; CAKI-1; OVCAR-5; NCI-H23; EKVX; ACHN; NCI-H460; NCI/ADR-RES; MOLT-4; A549; UACC-257.
What all share (test): growth of human tumour cells (NCI), 48 h

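Step 1: Grow cells in 96-well plates. Step 2: Expose to compound for 48 hours at 5 concentrations. Step 3: Interpolate endpoints linearly; if unreached, use highest concentration. Here, GI50 denotes the concentration required for 50% inhibition of growth.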 Calls of active or inactive are those of the source. No stated cut-off is given here; in the data, active = GI50 up to about 1.1 µM and inactive = higher. Where a SMILES comes first, the peptide text is derived from it. [ ]: non-standard residue; d: D form. The star is where a group is joined. ξ: configuration not given here. ξPhe(4-NO2) = NC(Cc1ccc([N+](=O)[O-])cc1)C(=O)O; Boc = CC(C)(C)OC(=O)* Bounds are passed on as bounds.

Take `COC(=O)/C=C1/OC(c2ccc(C)cc2C)=CC1=O`: the GI50 in the assay on U-251 was 17.4 µM (inactive); in the assay on PC-3, 17.8 µM (inactive); in the assay with HCT-15 it was 13.9 µM; with MDA-N it was 15.2 µM (inactive); in the assay on HCC 2998 it was 16.7 µM (inactive); in the assay on SF-539, 17.2 µM (inactive). Besides, the GI50 in the assay with Hs-578T was 33.4 µM (inactive); in the assay on A498, 20.7 µM (inactive); in the assay on UO-31, 16.8 µM (inactive); in the assay on SW-620, 2.82 µM (inactive); in the assay on CAKI-1, 19.5 µM (inactive); with OVCAR-5 it was 15.7 µM (inactive). The GI50 was 24.5 µM (inactive) in the assay with NCI-H23; 65 µM (inactive) with EKVX; 15.8 µM (inactive) with ACHN; 19 µM (inactive) in the assay with NCI-H460; 19.5 µM (inactive) in the assay on NCI/ADR-RES; 3.55 µM (inactive) in the assay with MOLT-4.

As for `CCOP(=O)(OCC)C(NC(=O)C(C(F)(F)F)C(F)(F)F)c1ccccc1` (stereo not given), the GI50 with U-251 was > 100 µM (inactive); with PC-3, > 100 µM (inactive); with HCT-15 it was more than 100 µM; in the assay on MDA-N, > 100 µM (inactive); in the assay on HCC 2998 it was > 100 µM (inactive); in the assay on A549, > 100 µM (inactive). Further, the GI50 in the assay on SF-539 is > 100 µM (inactive); in the assay with UACC-257 it was > 100 µM (inactive); with Hs-578T it was > 100 µM (inactive); in the assay on UO-31, 49.9 µM (inactive); in the assay on SW-620, > 100 µM (inactive); in the assay on CAKI-1, > 100 µM (inactive). The GI50 with OVCAR-5, in the assay on NCI-H23, with EKVX, with ACHN, in the assay on NCI-H460 and in the assay on NCI/ADR-RES was > 100 µM (inactive) each time. The GI50 in the assay with MOLT-4 was 67.3 µM (inactive).

`COC1(OC)N=C(N)C2(C#N)C(C)=C3NCN(C)N=C3C12C#N` (stereo not given): the GI50 is > 100 µM (inactive) with U-251; > 100 µM (inactive) in the assay with PC-3; more than 100 µM in the assay with HCT-15; > 100 µM (inactive) in the assay with MDA-N; > 100 µM (inactive) with HCC 2998; > 100 µM (inactive) in the assay with A549. Moreover, the GI50 in the assay with SF-539, in the assay with UACC-257, with Hs-578T, with A498, in the assay on UO-31 and in the assay with SW-620 was > 100 µM (inactive) each time. The GI50 in the assay on CAKI-1, with OVCAR-5, in the assay with NCI-H23, with EKVX, in the assay with ACHN and in the assay with NCI/ADR-RES was > 100 µM (inactive) each time.

Consider `CCOC(=O)c1cc2nc3ccccc3c(=O)n2c2ccccc12`, for which the GI50 in the assay on U-251 is > 10 µM (inactive); with PC-3 it was > 10 µM (inactive); with HCT-15, more than 10 µM; in the assay with MDA-N, > 10 µM (inactive); in the assay with HCC 2998, > 10 µM (inactive); in the assay on A549, > 10 µM (inactive). Also, the GI50 in the assay on SF-539, in the assay on UACC-257, in the assay with Hs-578T, with A498, with UO-31 and in the assay on SW-620 was > 10 µM (inactive) each time. Also, the GI50 in the assay with CAKI-1, in the assay on OVCAR-5, in the assay with NCI-H23, in the assay with EKVX, with ACHN and with NCI-H460 was > 10 µM (inactive) throughout. Also, the GI50 with NCI/ADR-RES is > 10 µM (inactive).

In the case of `O=C(Nc1ccccc1)Oc1ccc(C(=S)Nc2ccc(Br)cc2)cc1`, the GI50 in the assay with U-251 was 19.5 µM (inactive); with PC-3, 22.6 µM (inactive); in the assay with HCT-15, 16.2 µM; in the assay on MDA-N it was 18.9 µM (inactive); with HCC 2998 it was 21.6 µM (inactive); in the assay with SF-539, 18.6 µM (inactive). The GI50 in the assay on UACC-257 was 20.5 µM (inactive); with Hs-578T, 22.9 µM (inactive); in the assay on A498, 19.1 µM (inactive); in the assay with SW-620, 24.5 µM (inactive); with CAKI-1, 15.3 µM (inactive); in the assay on OVCAR-5, 16.6 µM (inactive). Further, the GI50 in the assay on NCI-H23 is 17.5 µM (inactive); in the assay with EKVX it was 5.13 µM (inactive); in the assay with ACHN it was 23.3 µM (inactive); in the assay with NCI-H460, 16.9 µM (inactive); with NCI/ADR-RES, 15.3 µM (inactive); with MOLT-4 it was 13.4 µM (inactive).

With `Nc1ccc(Cc2ccc(N)c(C(=O)O)c2)cc1C(=O)O`, the GI50 was > 100 µM (inactive) in the assay on U-251; > 100 µM (inactive) in the assay with PC-3; more than 100 µM in the assay on HCT-15; > 100 µM (inactive) in the assay with MDA-N; > 100 µM (inactive) in the assay on HCC 2998; > 100 µM (inactive) with A549. Moreover, the GI50 in the assay on SF-539, in the assay with UACC-257, in the assay on Hs-578T, in the assay with A498, in the assay with UO-31 and in the assay on SW-620 was > 100 µM (inactive) throughout. For the same molecule, the GI50 in the assay with CAKI-1, with OVCAR-5, in the assay on NCI-H23, in the assay on EKVX, in the assay with ACHN and in the assay on NCI-H460 was > 100 µM (inactive) in each case. The GI50 in the assay on NCI/ADR-RES is > 100 µM (inactive).

Take `COC(=O)[C@H](Cc1ccccc1)NC(=O)N1CCN(C(=O)N[C@@H](Cc2ccccc2)C(=O)OC)CCN(C(=O)N[C@@H](Cc2ccccc2)C(=O)OC)CC1`: the GI50 with U-251 was > 100 µM (inactive); in the assay on PC-3, > 100 µM (inactive); in the assay on HCT-15, more than 100 µM; in the assay with MDA-N, > 100 µM (inactive); in the assay with HCC 2998, > 100 µM (inactive); in the assay with A549, > 100 µM (inactive). Further, the GI50 in the assay on UACC-257, with Hs-578T, in the assay with A498, with UO-31, with SW-620 and in the assay with CAKI-1 was > 100 µM (inactive) each time. Also, the GI50 in the assay on OVCAR-5, in the assay with NCI-H23, with EKVX, in the assay with ACHN, in the assay with NCI-H460 and in the assay on NCI/ADR-RES was > 100 µM (inactive) each time. Also, in the assay on MOLT-4, the GI50 is > 100 µM (inactive).

Regarding `C#CCCCC(=O)N(C(=O)C[S+]([O-])CC)c1ccccc1` (stereo not given), the GI50 in the assay with U-251 was > 100 µM (inactive); with PC-3 it was > 100 µM (inactive); in the assay on HCT-15 it was more than 100 µM; in the assay with MDA-N, > 100 µM (inactive); in the assay with HCC 2998, > 100 µM (inactive); in the assay with A549, > 100 µM (inactive). Besides, the GI50 with SF-539, in the assay with UACC-257, in the assay on Hs-578T, in the assay on UO-31, in the assay with SW-620 and in the assay with CAKI-1 was > 100 µM (inactive) in each case. In addition, the GI50 with OVCAR-5, in the assay with NCI-H23, in the assay on EKVX, in the assay with ACHN, with NCI-H460 and in the assay on NCI/ADR-RES was > 100 µM (inactive) each time. The GI50 with MOLT-4 was > 100 µM (inactive).

As to `Cn1c(-c2ccccc2)cc2c3ccsc3c3ccsc3c21`, the GI50 is > 100 µM (inactive) in the assay with U-251; > 100 µM (inactive) with PC-3; 29.2 µM in the assay with HCT-15; > 100 µM (inactive) with MDA-N; > 100 µM (inactive) in the assay with HCC 2998; > 100 µM (inactive) in the assay with A549. Further, the GI50 in the assay with SF-539, in the assay with UACC-257, in the assay on Hs-578T, in the assay on A498, in the assay with UO-31 and with SW-620 was > 100 µM (inactive) in each case. In addition, the GI50 was > 100 µM (inactive) in the assay with CAKI-1; > 100 µM (inactive) with OVCAR-5; > 100 µM (inactive) with NCI-H23; > 100 µM (inactive) in the assay with ACHN; 53.1 µM (inactive) in the assay on NCI-H460; > 100 µM (inactive) in the assay on NCI/ADR-RES. The GI50 in the assay with MOLT-4 was 92.7 µM (inactive).

`CC(=O)Nc1ccc(S(=O)(=O)[N-]C2C(=O)c3ccccc3C(=O)C2[n+]2ccccc2)cc1` (stereo not given): the GI50 is 14.3 µM (inactive) with U-251; 17.1 µM (inactive) with PC-3; 28.3 µM in the assay on HCT-15; 17.2 µM (inactive) with MDA-N; 19.1 µM (inactive) in the assay with HCC 2998; 19.5 µM (inactive) in the assay on A549. In addition, the GI50 is 18.5 µM (inactive) in the assay on SF-539; 16.1 µM (inactive) in the assay on UACC-257; 23.1 µM (inactive) with Hs-578T; 9.06 µM (inactive) in the assay on UO-31; 17.1 µM (inactive) with SW-620; > 100 µM (inactive) with CAKI-1. Further, the GI50 in the assay with OVCAR-5 was 17.7 µM (inactive); with NCI-H23, 7.64 µM (inactive); in the assay with EKVX it was 31 µM (inactive); in the assay on ACHN, 15.8 µM (inactive); in the assay on NCI-H460, 29.3 µM (inactive); with NCI/ADR-RES, 17.1 µM (inactive). In the assay on MOLT-4, the GI50 was 17.6 µM (inactive).

For `CCNC(=O)CNC(=O)C(Cc1ccc([N+](=O)[O-])cc1)NC(=O)OC(C)(C)C` (stereo not given) (Boc-[ξPhe(4-NO2)]-Gly-NHEt), the GI50 with U-251 is > 100 µM (inactive); in the assay on PC-3, > 100 µM (inactive); in the assay with HCT-15, more than 100 µM; with MDA-N, > 100 µM (inactive); in the assay on HCC 2998, > 100 µM (inactive); in the assay with A549, > 100 µM (inactive). In addition, the GI50 is > 100 µM (inactive) in the assay with Hs-578T; 53.6 µM (inactive) in the assay with A498; > 100 µM (inactive) in the assay with UO-31; > 100 µM (inactive) with SW-620; > 100 µM (inactive) with CAKI-1; > 100 µM (inactive) in the assay on OVCAR-5. Further, the GI50 with NCI-H23, in the assay with EKVX, in the assay with ACHN, in the assay with NCI-H460, in the assay on NCI/ADR-RES and with MOLT-4 was > 100 µM (inactive) each time.
